Literature values in US20220018045A1, “ELECTROSPUN COAXIAL POLYMER FIBERS FOR CONTROLLED INSECT REPELLENT RELEASE” (The Government of the United States of America, as …, priority 2020, published 2022).

Details: ambient conditions

In the case of CCC(C)OC(=O)N1CCCCC1CCO (stereo not shown) [picaridin, 1-(1-methylpropoxycarbonyl)-2-(2-hydroxyethyl)piperidine], the vapor pressure is listed as ~3.3×10^−2 Pa.
